Conditions: in vivo
Protocol: Old piglets, weighing between 0.8-2.0 kg, were used.
The procedure was carried out as follows: piglets inhaled 10 mg of lidocaine and lidocaine gel was applied in the oropharynx just before the insertion of a Mayo oropharyngeal atomization cannula. The piglets were then laid on one side according to the randomization protocol, and correct positioning of the oropharyngeal cannula just above the larynx entrance was assessed by fiberbronchoscopy. Curosurf® was thoroughly mixed with 300 MBq of Tc-labeled nanocolloid and the animals received a total of 200 mg/kg Curosurf® (80 mg/mL) through an atomization catheter placed inside the oropharyngeal airway. The surfactant atomization procedure was divided in 4 stages (doses): each stage consisted in the delivery of one fourth of the total surfactant dose with the piglet breathing spontaneously on nasal-CPAP (via special “snout-mask”, see details in methods), followed by 5 minutes of PS-ventilation with PEEP (via snout-mask) to avoid atelectasis and promote delivery of the surfactant to the lower airways. When all the surfactant had been delivered, the oropharyngeal cannula was removed and the piglet received PS-ventilation for 15 min. FiO2 was adjusted to maintain saturation above 85%. To secure the airway under transportation to the gamma camera and scintigraphy, the animals were endotracheally intubated and manually ventilated with a Laerdal Silicone Resuscitator.
The piglets were premedicated with i.m. ketamine, midazolam, and atropine, an ear vein was cannulated, and the animals were sedated with a continuous iv. infusion of dexmedetomedine and ketamine. Sedation was supplemented with small intermittent boluses of iv. propofol when needed. An arterial catheter was placed in the femoral artery under local anaesthesia. Invasive blood pressure, pulse oximetry, cerebral oximetry (INVOS), and the diaphragmatic electrical activity (NAVA catheter) were monitored in all animals.
Group-assignment was random, and arranged so that pigs from the same litter were distributed evenly among the groups, when possible. […]

poractant alfa [Curosurf]
amount of surfactant deposited into the lung compartment: more than 61% | percentage of surfactant deposited, pharynx (mean) (200 mg/kg): 11.1 percentage | percentage of surfactant deposited, trachea (mean) (200 mg/kg): 13.5 percentage

— patent publication US11197965B2, “Method and system for the administration of a pulmonary surfactant by atomization” (CHIESI FARMACEUTICI S.p.A., priority 2013, dated 2021)
